Publication PMC6273868, “High-Resolution α-Glucosidase Inhibition Profiling Combined with HPLC-HRMS-SPE-NMR for Identification of Antidiabetic Compounds in Eremanthus crotonoides (Asteraceae)” (Molecules, 2016)
“Also recorded” adds a separate entry of the source.

What was measured:
α-glucosidase [1] = test: High-resolution α-glucosidase inhibition profiling (biochromatogram) of HPLC microfractions; type: biochemical, Saccharomyces cerevisiae; design: α-glucosidase inhibitory activity of peak in biochromatogram / α-glucosidase inhibitory activity, direct readout from the biochromatogram: concentration or dose not given beside the values; details: for α-glucosidase inhibitory activity as seen in the biochromatogram of E. crotonoides extract (in words): crude defatted ethyl acetate extract, C18 column; for α-glucosidase inhibitory activity of peak in biochromatogram: microfractionation of fraction Fr.2 on PFP column; for α-glucosidase inhibitory activity of peak in biochromatogram / α-glucosidase inhibitory activity, direct readout from the biochromatogram: relative inhibition, quantity unknown; for α-glucosidase inhibitory activity, direct readout from the biochromatogram: biochromatogram of crude defatted extract
Procedure: Thus, 0.4 mg of the extract of E. crotonoides was subjected to analytical-scale reversed-phase HPLC, and the eluate in the retention time range from 3.0 to 78.0 min was fractionated into four 96-well microplates, yielding a resolution of 4.7 data points/min (the first column of each microplate was reserved for blanks and controls). This was followed by evaporation of the HPLC eluate from all wells, reconstitution in buffer containing 10% DMSO, and assessment of the α-glucosidase inhibitory activity of all wells (final concentration of DMSO during assay = 5%). The inhibitory activities (calculated as percentage inhibition) were plotted against the retention time from the microfractionation to give the high-resolution α-glucosidase inhibition profile (biochromatogram) shown in Figure 1. The HPLC chromatogram at 254 nm is shown with the blue line (top) and the high-resolution α-glucosidase inhibition profile shown with the red line at the bottom. The high resolution of the biochromatogram allows direct correlation of HPLC peaks and peaks in the biochromatogram—thereby pinpointing peaks corresponding to compounds with α-glucosidase inhibitory activity.
(§1) Methanol and ethyl acetate used for extraction were purchased from Tedia (Fairfield, OH, USA). Formic acid was obtained from Merck (Darmstadt, Germany) and water was prepared by a deionization and 0.22-µm membrane filtration system (Milipore, Billerica, MA, USA).
Microfractionation was performed with an Agilent 1200 series instrument (Santa Clara, CA, USA) consisting of a G1316A quartenary pump, a G1322A degasser, a G1316A thermostatted column compartment, a G1315C photodiode-array detector, a G1364C fraction collector, and a G1367C high-performance auto sampler, controlled by Agilent ChemStation ver. B.03.02 software. The columns used were a Phenomenex C18(2) Luna (150 mm × 4.6 mm, 3 μm particle size, 100 Å pore size) and a Phenomenex PFP Kinetex (150 mm × 4.6 mm, 2.6 μm particle size, 100 Å pore size). For fractionation of the crude defatted ethyl acetate extract of E. crotonoides (injection: 4 μL; concentration: 100 mg/mL) the temperature was maintained at 40 °C and the flow rate at 0.5 mL/min. The solvents were a binary gradient mixture of water–acetonitrile (95:5 v/v) as eluent A and acetonitrile–water (95:5 v/v) as eluent B, both acidified with 0.1% formic acid. The following elution profile was used: 0 min, 10% B; 35 min, 26% B; 50 min, 35% B; 60 min, 40% B; 90 min, 100% B, and the eluate from 3 to 78 min was fractionated into four 96-well microplates, leading to a resolution of 4.7 data points per min. For fractionation of Fr.2 (injection: 2 μL; concentration: 33 mg/mL) the same conditions as described above were used, but with methanol and the PFP column instead of acetonitrile and the C18 column. The eluate from 8 to 30 min was fractionated into one 96-well microplate (resolution: 4.0 data points per min) using the following gradient: 0 min, 50% B; 3 min, 50% B; 34 min, 59% B; 35 min 100% B; 38 min, 100% B. The collected fractions were evaporated to dryness using a Savant SPD121P speed vacuum concentrator coupled with a RVT400 refrigerated vapor trap and an OFP-400 oil free pump (Holbrook, NY, USA). The α-glucosidase inhibitiory activity of the fractions was determined according to the previously described procedure. Briefly, the content of each well was dissolved in 100 μL of 0.1 M phosphate buffer containing 10% of DMSO and added 80 μL of the α-glucosidase solution. After incubation at 28 °C for 10 min the reaction was initiated by addition of 20 μL of PNPG (10 mM in phosphate buffer) (final volume = 200 μL and final DMSO = 5%). The cleavage product of PNPG was monitored at 405 nm for 35 min using a Multiskan FC microplate photometer (Thermo Scientific, Waltham, MA, USA) and the percentage enzyme inhibition was calculated. […]

α-glucosidase [2] = target: α-glucosidase; design: method as in PMID 25172103; details: known as a weak inhibitor; cited from earlier work
yeast α-glucosidase = test: α-glucosidase inhibition assay, dilution series for IC50 determination (PNPG substrate); type: biochemical, Saccharomyces cerevisiae; details: for IC50: isolated compounds, means ± SD of triplicate experiments
Procedure: as §1
Microfractionation was performed with an Agilent 1200 series instrument (Santa Clara, CA, USA) consisting of a G1316A quartenary pump, a G1322A degasser, a G1316A thermostatted column compartment, a G1315C photodiode-array detector, a G1364C fraction collector, and a G1367C high-performance auto sampler, controlled by Agilent ChemStation ver. B.03.02 software. The columns used were a Phenomenex C18(2) Luna (150 mm × 4.6 mm, 3 μm particle size, 100 Å pore size) and a Phenomenex PFP Kinetex (150 mm × 4.6 mm, 2.6 μm particle size, 100 Å pore size). For fractionation of the crude defatted ethyl acetate extract of E. crotonoides (injection: 4 μL; concentration: 100 mg/mL) the temperature was maintained at 40 °C and the flow rate at 0.5 mL/min. The solvents were a binary gradient mixture of water–acetonitrile (95:5 v/v) as eluent A and acetonitrile–water (95:5 v/v) as eluent B, both acidified with 0.1% formic acid. The following elution profile was used: 0 min, 10% B; 35 min, 26% B; 50 min, 35% B; 60 min, 40% B; 90 min, 100% B, and the eluate from 3 to 78 min was fractionated into four 96-well microplates, leading to a resolution of 4.7 data points per min. For fractionation of Fr.2 (injection: 2 μL; concentration: 33 mg/mL) the same conditions as described above were used, but with methanol and the PFP column instead of acetonitrile and the C18 column. The eluate from 8 to 30 min was fractionated into one 96-well microplate (resolution: 4.0 data points per min) using the following gradient: 0 min, 50% B; 3 min, 50% B; 34 min, 59% B; 35 min 100% B; 38 min, 100% B. The collected fractions were evaporated to dryness using a Savant SPD121P speed vacuum concentrator coupled with a RVT400 refrigerated vapor trap and an OFP-400 oil free pump (Holbrook, NY, USA). The α-glucosidase inhibitiory activity of the fractions was determined according to the previously described procedure. Briefly, the content of each well was dissolved in 100 μL of 0.1 M phosphate buffer containing 10% of DMSO and added 80 μL of the α-glucosidase solution. After incubation at 28 °C for 10 min the reaction was initiated by addition of 20 μL of PNPG (10 mM in phosphate buffer) (final volume = 200 μL and final DMSO = 5%). The cleavage product of PNPG was monitored at 405 nm for 35 min using a Multiskan FC microplate photometer (Thermo Scientific, Waltham, MA, USA) and the percentage enzyme inhibition was calculated. The α-glucosidase inhibition of each well was plotted at their respective retention times underneath the HPLC chromatogram to obtain a high-resolution biochromatogram.
Preparative-scale fractionation was performed using an Agilent 1100 series instrument equipped with a multiple wavelength detector, an autosampler and two preparative-scale solvent delivery pumps. The column used was a Phenomenex C18(2) Luna (250 mm × 21.2 mm, 5 μm particle size, 100 Å pore size) and the gradient method was as follows: 0 min, 20% B; 27 min, 35% B; 37 min, 40% B; 40 min, 100% B; 46 min, 100% B; 47 min, 20% B; 52 min, 20% B using a binary mixture of water–acetonitrile (95:5 v/v) as eluent A and acetonitrile–water (95:5 v/v) as eluent B, both acidified with 0.1% formic acid.

α-glucosidase inhibitory activity as seen in the biochromatogram of E. crotonoides extract (in words) (α-glucosidase [1])	α-glucosidase inhibitory activity of peak in biochromatogram (α-glucosidase [1]) [%]	IC50 (yeast α-glucosidase) [µM]	Compound	other results
no or very low	–	–	O=C(/C=C/c1ccc(O)c(O)c1)O[C@H]1[C@H](O)C[C@](O)(C(=O)O)C[C@H]1OC(=O)/C=C/c1ccc(O)c(O)c1 [Compound 8, 3,4-di-O-caffeoylquinic acid]	–
no or very low	–	–	O=C(/C=C/c1ccc(O)c(O)c1)O[C@@H]1C[C@](O)(C(=O)O)C[C@@H](OC(=O)/C=C/c2ccc(O)c(O)c2)[C@H]1O [Compound 9, 3,5-di-O-caffeoylquinic acid]	–
no or very low; also recorded: minor	–	–	O=C(/C=C/c1ccc(O)c(O)c1)O[C@@H]1[C@H](O)C[C@@](O)(C(=O)O)C[C@H]1OC(=O)/C=C/c1ccc(O)c(O)c1 [Compound 11, 4,5-di-O-caffeoylquinic acid]	IC50 (α-glucosidase [2]): > 100 µM
minor	–	–	O=C(/C=C/c1ccc(O)c(O)c1)OC[C@H]1O[C@@H](Oc2c(-c3ccc(O)c(O)c3)oc3cc(O)cc(O)c3c2=O)[C@H](O)[C@@H](O)[C@@H]1O [Compound 12, quercetin-3-O-(6″-(E)-O-caffeoyl)-β-D-glucoside]	–
–	82	–	O=c1c(O)c(-c2ccc(O)c(O)c2)oc2cc(O)cc(O)c12 [Compound 16, quercetin]	–
–	23	> 210	O=C(/C=C/c1ccc(O)cc1)OC[C@H]1O[C@@H](Oc2c(-c3ccc(O)cc3)oc3cc(O)cc(O)c3c2=O)[C@H](O)[C@@H](O)[C@@H]1O [Compound 17, trans-tiliroside]	Inhibition at 210 μM (yeast α-glucosidase; 210 μM): 4.5%
–	32	59.6 ± 1.32	O=c1cc(-c2ccc(O)c(O)c2)oc2cc(O)cc(O)c12 [Compound 19, luteolin]	–
–	70	20.4 ± 1.3	COc1c(-c2ccc(O)c(O)c2)oc2cc(O)cc(O)c2c1=O [Compound 20, quercetin 3-methyl ether]	–
–	–	5.93 ± 0.12	CCCCOC(=O)[C@]1(O)C[C@@H](OC(=O)/C=C/c2ccc(O)c(O)c2)[C@@H](O)[C@H](OC(=O)/C=C/c2ccc(O)c(O)c2)C1 [Compound 26, 3,5-di-O-caffeoylquinic acid n-butyl ester]	α-glucosidase inhibitory activity, direct readout from the biochromatogram (α-glucosidase [1]): 92%
–	–	5.2 ± 0.3	CCCCOC(=O)[C@]1(O)C[C@@H](O)[C@@H](OC(=O)/C=C/c2ccc(O)c(O)c2)[C@H](OC(=O)/C=C/c2ccc(O)c(O)c2)C1 [Compound 29, 4,5-di-O-caffeoylquinic acid n-butyl ester]	α-glucosidase inhibitory activity, direct readout from the biochromatogram (α-glucosidase [1]): 57%
